How the values were obtained:
Assay type in all cases: functional
[1] = test system: Nilaparvata lugens; assay: Insecticidal activity against adult Nilaparvata lugens (brown planthopper) assessed as mortality at 600 ug/disc after 48 hr relative to control
[2] = test system: Nilaparvata lugens; assay: Insecticidal activity against adult Nilaparvata lugens (brown planthopper) assessed as mortality at 600 ug/disc after 24 hr relative to control
[3] = test system: Frankliniella occidentalis; assay: Insecticidal activity against adult Frankliniella occidentalis (western flower thrips) assessed as mortality at 75 ug/disc after 24 hr relative to control
[4] = test system: Frankliniella occidentalis; assay: Insecticidal activity against adult Frankliniella occidentalis (western flower thrips) assessed as mortality at 37.5 ug/disc after 48 hr relative to control
[5] = test system: Frankliniella occidentalis; assay: Insecticidal activity against adult Frankliniella occidentalis (western flower thrips) assessed as mortality at 37.5 ug/disc after 24 hr relative to control
[6] = test system: Frankliniella occidentalis; assay: Insecticidal activity against adult Frankliniella occidentalis (western flower thrips) assessed as mortality at 12.5 ug/disc after 72 hr relative to control
[7] = test system: Frankliniella occidentalis; assay: Insecticidal activity against adult Frankliniella occidentalis (western flower thrips) assessed as mortality at 12.5 ug/disc after 48 hr relative to control
[8] = test system: Nilaparvata lugens; assay: Insecticidal activity against adult Nilaparvata lugens (brown planthopper) assessed as mortality at 60 ug/disc after 24 hr relative to control
[9] = test system: Nilaparvata lugens; assay: Insecticidal activity against adult Nilaparvata lugens (brown planthopper) assessed as mortality at 60 ug/disc after 48 hr relative to control
[10] = test system: Spodoptera litura; assay: Insecticidal activity against adult Spodoptera litura assessed as mortality at 600 ug/disc after 48 hr relative to control
[11] = test system: Spodoptera litura; assay: Insecticidal activity against adult Spodoptera litura assessed as mortality at 600 ug/disc after 24 hr relative to control
[12] = test system: Spodoptera litura; assay: Insecticidal activity against adult Spodoptera litura assessed as mortality at 60 ug/disc after 48 hr relative to control
[13] = test system: Spodoptera litura; assay: Insecticidal activity against adult Spodoptera litura assessed as mortality at 60 ug/disc after 24 hr relative to control
[14] = test system: Plutella xylostella; assay: Insecticidal activity against adult Plutella xylostella (diamondback moth) assessed as mortality at 600 ug/disc after 48 hr relative to control
[15] = test system: Plutella xylostella; assay: Insecticidal activity against adult Plutella xylostella (diamondback moth) assessed as mortality at 600 ug/disc after 24 hr relative to control
[16] = test system: Plutella xylostella; assay: Insecticidal activity against adult Plutella xylostella (diamondback moth) assessed as mortality at 60 ug/disc after 48 hr relative to control
[17] = test system: Plutella xylostella; assay: Insecticidal activity against adult Plutella xylostella (diamondback moth) assessed as mortality at 60 ug/disc after 24 hr relative to control
[18] = test system: Frankliniella intonsa; assay: Insecticidal activity against adult Frankliniella intonsa assessed as mortality at 25 ug/disk after 24 hr relative to control
[19] = test system: Frankliniella intonsa; assay: Insecticidal activity against adult Frankliniella intonsa assessed as mortality at 12.5 ug/disk after 72 hr relative to control
[20] = test system: Frankliniella intonsa; assay: Insecticidal activity against adult Frankliniella intonsa assessed as mortality at 12.5 ug/disk after 48 hr relative to control
[21] = test system: Frankliniella intonsa; assay: Insecticidal activity against adult Frankliniella intonsa assessed as mortality at 12.5 ug/disk after 24 hr relative to control
[22] = test system: Thrips palmi; assay: Insecticidal activity against adult Thrips palmi assessed as mortality at 75 ug/disk after 24 hr relative to control
[23] = test system: Thrips palmi; assay: Insecticidal activity against adult Thrips palmi assessed as mortality at 50 ug/disk after 48 hr relative to control
[24] = test system: Thrips palmi; assay: Insecticidal activity against adult Thrips palmi assessed as mortality at 50 ug/disk after 24 hr relative to control
[25] = test system: Thrips palmi; assay: Insecticidal activity against adult Thrips palmi assessed as mortality at 37.5 ug/disk after 72 hr relative to control
[26] = test system: Thrips palmi; assay: Insecticidal activity against adult Thrips palmi assessed as mortality at 37.5 ug/disk after 48 hr relative to control
[27] = test system: Thrips palmi; assay: Insecticidal activity against adult Thrips palmi assessed as mortality at 37.5 ug/disk after 24 hr relative to control
[28] = test system: Thrips palmi; assay: Insecticidal activity against adult Thrips palmi assessed as mortality at 25 ug/disk after 72 hr relative to control
[29] = test system: Thrips palmi; assay: Insecticidal activity against adult Thrips palmi assessed as mortality at 25 ug/disk after 48 hr relative to control
[30] = test system: Thrips palmi; assay: Insecticidal activity against adult Thrips palmi assessed as mortality at 25 ug/disk after 24 hr relative to control
[31] = test system: Thrips palmi; assay: Insecticidal activity against adult Thrips palmi assessed as mortality at 12.5 ug/disk after 72 hr relative to control
[32] = test system: Thrips palmi; assay: Insecticidal activity against adult Thrips palmi assessed as mortality at 12.5 ug/disk after 24 hr relative to control
[33] = test system: Thrips palmi; assay: Insecticidal activity against adult Thrips palmi assessed as mortality at 12.5 ug/disk after 48 hr relative to control
[34] = test system: Frankliniella occidentalis; assay: Insecticidal activity against adult Frankliniella occidentalis (western flower thrips) assessed as mortality at 12.5 ug/disc after 24 hr relative to control
[35] = test system: Frankliniella intonsa; assay: Insecticidal activity against adult Frankliniella intonsa assessed as mortality at 75 ug/disk after 24 hr relative to control
[36] = test system: Frankliniella intonsa; assay: Insecticidal activity against adult Frankliniella intonsa assessed as mortality at 50 ug/disk after 72 hr relative to control
[37] = test system: Frankliniella intonsa; assay: Insecticidal activity against adult Frankliniella intonsa assessed as mortality at 50 ug/disk after 48 hr relative to control
[38] = test system: Frankliniella intonsa; assay: Insecticidal activity against adult Frankliniella intonsa assessed as mortality at 37.5 ug/disk after 72 hr relative to control
[39] = test system: Frankliniella intonsa; assay: Insecticidal activity against adult Frankliniella intonsa assessed as mortality at 37.5 ug/disk after 48 hr relative to control
[40] = test system: Frankliniella intonsa; assay: Insecticidal activity against adult Frankliniella intonsa assessed as mortality at 37.5 ug/disk after 24 hr relative to control
[41] = test system: Frankliniella intonsa; assay: Insecticidal activity against adult Frankliniella intonsa assessed as mortality at 25 ug/disk after 72 hr relative to control
[42] = test system: Frankliniella intonsa; assay: Insecticidal activity against adult Frankliniella intonsa assessed as mortality at 25 ug/disk after 48 hr relative to control

SMILES: C=C1CCOC1=O [TULIPALINE A]
- mortality at 600 µg/disc [1]: 30%
- mortality at 600 µg/disc [2]: 0%
- mortality at 75 µg/disc [3]: 100%
- mortality at 37.5 µg/disc [4]: 100%
- mortality at 37.5 µg/disc [5]: 52%
- mortality at 12.5 µg/disc [6]: 12%
- mortality at 12.5 µg/disc [7]: 8%
- mortality at 60 µg/disc [8]: 0%
- mortality at 60 µg/disc [9]: 0%
- mortality at 600 µg/disc [10]: 20%
- mortality at 600 µg/disc [11]: 0%
- mortality at 60 µg/disc [12]: 0%
- mortality at 60 µg/disc [13]: 0%
- mortality at 600 µg/disc [14]: 50%
- mortality at 600 µg/disc [15]: 0%
- mortality at 60 µg/disc [16]: 0%
- mortality at 60 µg/disc [17]: 0%
- mortality at 25 µg/disc [18]: 34%
- mortality at 12.5 µg/disc [19]: 0%
- mortality at 12.5 µg/disc [20]: 0%
- mortality at 12.5 µg/disc [21]: 0%
- mortality at 75 µg/disc [22]: 100%
- mortality at 50 µg/disc [23]: 100%
- mortality at 50 µg/disc [24]: 80%
- mortality at 37.5 µg/disc [25]: 100%
- mortality at 37.5 µg/disc [26]: 94%
- mortality at 37.5 µg/disc [27]: 56%
- mortality at 25 µg/disc [28]: 90%
- mortality at 25 µg/disc [29]: 70%
- mortality at 25 µg/disc [30]: 14%
- mortality at 12.5 µg/disc [31]: 20%
- mortality at 12.5 µg/disc [32]: 2%
- mortality at 12.5 µg/disc [33]: 14%
- mortality at 12.5 µg/disc [34]: 4%
- mortality at 75 µg/disc [35]: 100%
- mortality at 50 µg/disc [36]: 94%
- mortality at 50 µg/disc [37]: 70%
- mortality at 37.5 µg/disc [38]: 76%
- mortality at 37.5 µg/disc [39]: 66%
- mortality at 37.5 µg/disc [40]: 58%
- mortality at 25 µg/disc [41]: 48%
- mortality at 25 µg/disc [42]: 48%

From ChEMBL document CHEMBL3046447, “Insecticidal Activity of α-Methylene-γ-butyrolactone against Several Insect Pests” (1999)
